Laboratory results taken from publication PMC11232398, “Antimalarial activity of cecropin antimicrobial peptides derived from Anopheles mosquitoes” (Antimicrobial Agents and Chemotherapy, 2024).
Like-named read-outs stand apart in the source and are kept apart here.

Columns and labels:
[1] = system: healthy erythrocytes (human RBCs)
Procedure: Hemolysis assays were performed using human RBCs according to previous reports ([38]). Briefly, serial dilutions of peptides were incubated with 2% hematocrit RBCs (in PBS) at 37°C for three different time points (15, 30, and 60 min) in triplicates. After incubation, the RBCs were centrifuged for 10 min at 1,000 × g and the absorbance of the supernatants at 540 nm was read by a spectrophotometer to assess the level of the released hemoglobin. Maximum hemolysis was determined by substituting the sample with 1% Triton X-100, which completely lyses the cells. […] Hemolysis of peptides was calculated using the following formula: Hemolysis (%) = (A540 of peptide- A540 of PBS) * 100/A540 of Triton X-100. Two independent tests with three technical replicates were performed for each hemolysis assay.

[2] = system: Plasmodium falciparum 3D7; assay: Transmission electron microscope analysis of parasite morphology; format: cell-based; conditions: TEM
Procedure: 3D7 strain parasites with parasitemia of 3% ~ 5% at a hematocrit of 2% were planted in 12-well plates, 3 mL/well. A 40-µM concentration of An-cecB or 200 µM An-cecB-1 was added and incubated for 30 min or 60 min. PBS was used as a control.
After incubation, the parasites were washed three times with ICM, and the electron microscope fixative solution (provided by the company) was added to keep the parasites clumped for 2 hours at room temperature. Finally, the samples were sent to a commercial company at 4°C for transmission electron microscope analysis.

[3] = system: P. falciparum 3D7 ring, trophozoite and schizont stages; assay: Stage-specific parasite inhibition assay; format: cell-based, Plasmodium falciparum; conditions: 40 µM for 12 hours at ring, trophozoite or schizont stage; reinvasion parasitemia at 50 hpi and after 1:40 dilution and 4 days
Procedure: The activity of An-cecB against different blood stage parasites was evaluated. Parasites were exposed to An-cecB at a lethal concentration of 40 µM for 12 hours at the ring stage [[…] (hours post invasion)], trophozoite stage (17–29 hpi), and schizont stage (29–41 hpi) (Fig. 2a). […] Parasites were then washed and cultured for 4 days […].
To analyze the stage-specific parasite inhibition, highly synchronized ring-stage parasites of the 3D7 strain were cultured in 48-well plates with a starting parasitemia of 0.5% ~ 1% at a hematocrit of 2%. The tested peptide at a concentration of 40 µM was added to ring stage parasites (5 hpi), trophozoites (17 hpi), and schizonts (29 hpi). After treatment for 12 hours, the parasites were washed three times to remove the peptide and the re-invaded parasites (50 hpi) were analyzed. The parasitemia (50hpi) was diluted 1:40 by new RBCs and cultured for a further 4 days. CM was used as a blank control. Parasitemia was counted under a microscope.

[4] = system: methyl-β-cyclodextrin-treated RBCs; assay: Hemolytic activity on cholesterol-depleted erythrocytes; format: cell-based, human; conditions: RBCs treated with 7.5 mM methyl-β-cyclodextrin for 2 hours at 37°C
Excerpt: Cholesterol is the main component of the RBC membrane and is important for maintaining its stability ([39]). Plasmodium falciparum infection efficiently depletes the red blood cells of cholesterol, which renders […] membranes susceptible to lysis ([40]). Therefore, methyl-β-cyclodextrin treatment was used to simulate the RBC cholesterol depletion caused by infection with Plasmodium. RBCs were washed once and then resuspended with PBS at 0.5% hematocrit. After treatment with the indicated concentration (7.5 mM) of methyl-β-cyclodextrin (Sigma) in RPMI for 2 hours at 37°C, the treated RBCs were washed with PBS and hemolysis assays were performed as described above. Two independent tests with five technical replicates were performed for each hemolysis assay.

[5] = system: RBCs infected by schizonts of P. falciparum 3D7; assay: Hemolytic activity on RBCs infected by schizonts; format: cell-based, human; conditions: percoll-purified 3D7 schizonts, 2% hematocrit in PBS
Procedure: To test the hemolytic activity of the peptides against RBCs infected by Plasmodium, schizonts of the P. falciparum 3D7 strain were collected. The parasite culture of mainly schizonts was centrifuged and resuspended to 50% hematocrit. Then, the resuspended culture was carefully laid on top of the gradient with 3 mL 70% and 3 mL 40% percoll-sorbitol solution. After centrifugation at 2,300 × g for 20 min at 20°C, schizonts from the 40/70% interface were collected and washed twice with 10× volume of ICM. The collected parasites were resuspended in PBS to 2% hematocrit for hemolysis assay as described above.

[6] = system: P. falciparum Dd2 (chloroquine-resistant strain); assay: In vitro antimalarial IC50 assay; format: cell-based, Plasmodium falciparum; conditions: strain Dd2, 72 h incubation, Giemsa smears
Procedure: (§1) Blood stages of the laboratory clones P. falciparum 3D7 (sensitive strain), P. falciparum 803 (artemisinin-resistant strain), and P. falciparum Dd2 (chloroquine-resistant strain) were cultured in vitro according to the method of Trager and Jensens with minor modifications ([37]). Briefly, cultures were maintained in O-positive human erythrocytes (RBCs) as host cells at 2% hematocrit and maintained in complete medium (CM) [RPMI-1640 culture medium supplemented with NaHCO3 (2 mg/mL), hypoxanthine (50 µg/mL), HEPES (5.96 mg/mL), albumax II (1%), and gentamicin (40 µg/mL)]. The cultures were diluted to 1% parasitemia and 2% hematocrit in CM and incubated in a humidified atmosphere with 5% O2, 5% CO2, and 90% N2 at 37°C. Prior to experiments, the cultures were highly synchronized for ring stages using 5% sorbitol twice at a 40-h interval. Briefly, ring stage cultures were centrifuged and the pellet was washed once in incomplete medium (ICM, RPMI-1640 without addition). […] The development of the parasite was observed using light microscopy, and parasitemia was determined by counting at least 10,000 RBCs on Giemsa’s solution-stained thin blood smears.
(§2) Highly synchronous ring stage parasites were used to investigate the in vitro antimalarial activity of the peptides. […] Thin blood films stained with Giemsa’s solution were counted under a microscope. […] IC50 was calculated by GraphPad Prism.

[7] = system: P. falciparum 803 (artemisinin-resistant strain); assay: In vitro antimalarial IC50 assay; format: cell-based, Plasmodium falciparum; conditions: strain 803, 72 h incubation, Giemsa smears
Procedure: as §1, §2

[8] = 40 µM An-cecB or 200 µM An-cecB-1, total 20 / 22

Procedure for HEK293T cells: The mammalian cell lines HepG2 and HEK293T were used for cytotoxicity tests. The cells were cultured in Dulbecco’s modified Eagle medium supplemented with 10% fetal bovine serum and 1% penicillin/streptomycin in an incubator at 37°C with 5% CO2. Cells were seeded at a density of 1 × 10^5 cells/mL per well into a 96-well plate overnight and treated with different concentrations of peptides for 48 hours. To analyze the CC50 of peptides, a series of concentrations of peptides (0, 5, 10, 20, 30, 40, 50, 60, and 70 µM) were set to detect their cytotoxic concentrations. Then, 10% CCK-8 solution was added into each well and incubated for another 2 hours. The absorbance was monitored by a microplate reader at 450 nm. PBS was used as a negative control and the inhibition of each drug was normalized to that of the PBS control. CC50 was calculated by GraphPad Prism. Two independent assays with three technical replicates each time were conducted.

APRWKFGKRLEKLGRNVFRAA KKALPVIAGYKAL-NH2 [An-cecB]
hemolysis rate ([1]; 10 µM): less than 2%
hemolysis rate ([1]; 20 µM): less than 2%
hemolysis rate ([1]; 40 µM): less than 5%
Normal (number of parasites) ([2]; 40 µM An-cecB or 200 µM An-cecB-1, 30 or 60 min, total 20 (An-cecB), 22 (An-cecB-1)): 7
Disintegration (number of parasites) [2, 8]: 3
Parasite disoriented (number of parasites) [2, 8]: 4
Parasite membrane dissolution (number of parasites) [2, 8]: 7
Parasite shrunken (number of parasites) [2, 8]: 9
Vacuole formation (number of parasites) [2, 8]: 3
activity against different blood stage parasites [3]: All parasite stages were killed
hemolysis of cholesterol-depleted erythrocytes [4]: significantly higher than that of controls
hemolytic activity to infected erythrocytes [5]: specifically lysed infected erythrocytes
CC50 (HEK293T cells): 57.33 µM
cytotoxicity to HEK293T cells (HEK293T cells): dose-dependently inhibited the cell viability
IC50 [6]: 12.8 µM
IC50 [7]: 9.89 µM
